Reference: patent publication US8349828B2, “Azatricyclic antibiotic compounds” (Actelion Pharmaceuticals Ltd., priority 2008, dated 2013)
Values after ≈ are worked out from the molar mass of the structure shown.

Tested on: M. catarrhalis A894
Assay: MIC determination by microdilution in cation-adjusted Mueller-Hinton Broth (CLSI M7-A7)
Format: cell-based
Conditions: Moraxella catarrhalis, A894, microdilution method
Method: Minimal inhibitory concentrations (MICs, in mg/l) were determined in cation-adjusted Mueller-Hinton Broth by a microdilution method following the description given in “Methods for Dilution Antimicrobial Susceptibility Tests for Bacteria that Grow Aerobically”, Approved standard, 7th ed., Clinical and Laboratory Standards Institute (CLSI) Document M7-A7, Wayne, Pa., USA, 2006. All Example compounds were tested against several Gram-positive and Gram-negative bacteria.

MIC [µg/mL] | SMILES
2 | O=C1CSc2ccc(N3C[C@@H](CCNCC4Cc5ccnc6ccc(=O)n4c56)OC3=O)cc2N1 (mixture of isomers) [Example 24, (RS)-5-({2-[(R)-2-oxo-3-(3-oxo-3,4-dihydro-2H-benzo[1,4]thiazin-6-yl)-oxazolidin-5-yl]-ethylamino}-methyl)-4,5-dihydro-pyrrolo[3,2,1-de][1,5]naphthyridin-7-one]
4 | O=C1COc2ccc(N3C[C@H](CCNCC4Cc5ccnc6ccc(=O)n4c56)OC3=O)cc2N1 (mixture of isomers) [Example 25, (RS)-5-({2-[(S)-2-oxo-3-(3-oxo-3,4-dihydro-2H-benzo[1,4]oxazin-6-yl)-oxazolidin-5-yl]-ethylamino}-methyl)-4,5-dihydro-pyrrolo[3,2,1-de][1,5]naphthyridin-7-one]
≤ 0.063 | O=C1CSc2ccc(N3C[C@@H](CCNCC4Cc5cccc6ccc(=O)n4c56)OC3=O)cc2N1 (mixture of isomers) [Example 26, (RS)-2-({2-[(R)-2-oxo-3-(3-oxo-3,4-dihydro-2H-benzo[1,4]thiazin-6-yl)-oxazolidin-5-yl]-ethylamino}-methyl)-1,2-dihydro-pyrrolo[3,2,1-ij]quinolin-4-one]
≤ 0.063 | O=C1COc2ccc(N3C[C@@H](CCNCC4Cc5cccc6ccc(=O)n4c56)OC3=O)cc2N1 (mixture of isomers) [Example 27, (RS)-2-({2-[(R)-2-oxo-3-(3-oxo-3,4-dihydro-2H-benzo[1,4]oxazin-6-yl)-oxazolidin-5-yl]-ethylamino}-methyl)-1,2-dihydro-pyrrolo[3,2,1-ij]quinolin-4-one]
≤ 0.063 | O=C1CSc2ccc(N3C[C@@H](CNCC4Cc5cccc6ccc(=O)n4c56)OC3=O)cc2N1 (mixture of isomers) [Example 28, (RS)-2-({[(R)-2-oxo-3-(3-oxo-3,4-dihydro-2H-benzo[1,4]thiazin-6-yl)-oxazolidin-5-ylmethyl]-amino}-methyl)-1,2-dihydro-pyrrolo[3,2,1-ij]quinolin-4-one]
≤ 0.063 | O=C1COc2ccc(N3C[C@H](CCNCC4Cc5cccc6ncc(=O)n4c56)OC3=O)nc2N1 (mixture of isomers) [Example 31, (RS)-5-({2-[(S)-2-oxo-3-(3-oxo-3,4-dihydro-2H-pyrido[3,2-b][1,4]oxazin-6-yl)-oxazolidin-5-yl]-ethylamino}-methyl)-5,6-dihydropyrrolo[1,2,3-de]quinoxalin-3-one]

Further lines, the compound ahead of its results:

SMILES | MIC [µg/mL]
O=C1COc2ccc(N3C[C@@H](CNCC4Cc5c(F)cnc6ccc(=O)n(c56)C4)OC3=O)cc2N1 (mixture of isomers) [Example 14, (RS)-3-fluoro-5-({[(R)-2-oxo-3-(3-oxo-3,4-dihydro-2H-benzo[1,4]oxazin-6-yl)-oxazolidin-5-ylmethyl]-amino}-methyl)-5,6-dihydro-4H-1,6a-diaza-phenalen-7-one] | ≤ 0.063
O=C1CSc2ccc(N3C[C@@H](CCNCC4Cc5c(F)cnc6ccc(=O)n4c56)OC3=O)cc2N1 (mixture of isomers) [Example 15, (RS)-3-fluoro-5-({2-[(R)-2-oxo-3-(3-oxo-3,4-dihydro-2H-benzo[1,4]thiazin-6-yl)-oxazolidin-5-yl]-ethylamino}-methyl)-4,5-dihydropyrrolo[3,2,1-de][1,5]naphthyridin-7-one] | ≤ 0.063
O=C1COc2ccc(N3C[C@@H](CCNCC4Cc5c(F)ccc6ccc(=O)n4c56)OC3=O)cc2N1 (mixture of isomers) [Example 21, (RS)-9-fluoro-2-({2-[(R)-2-oxo-3-(3-oxo-3,4-dihydro-2H-benzo[1,4]oxazin-6-yl)-oxazolidin-5-yl]-ethylamino}-methyl)-1,2-dihydropyrrolo[3,2,1-ij]quinolin-4-one] | ≤ 0.063
O=C1COc2ccc(N3C[C@H](CCNCC4Cc5c(F)ccc6ccc(=O)n4c56)OC3=O)cc2N1 (mixture of isomers) [Example 22, (RS)-9-fluoro-2-({2-[(S)-2-oxo-3-(3-oxo-3,4-dihydro-2H-benzo[1,4]oxazin-6-yl)-oxazolidin-5-yl]-ethylamino}-methyl)-1,2-dihydropyrrolo[3,2,1-ij]quinolin-4-one] | ≤ 0.063
O=C1COc2ccc(N3C[C@@H](CCNCC4Cc5c(F)ccc6c5N4C(=O)CC6)OC3=O)cc2N1 (mixture of isomers) [Example 23, (RS)-9-fluoro-2-({2-[(R)-2-oxo-3-(3-oxo-3,4-dihydro-2H-benzo[1,4]oxazin-6-yl)-oxazolidin-5-yl]-ethylamino}-methyl)-1,2,5,6-tetrahydropyrrolo[3,2,1-ij]quinolin-4-one] | ≤ 0.063
O=C1CSc2ccc(N3C[C@@H](CCN[C@@H]4Cc5c(F)ccc6ccc(=O)n(c56)C4)OC3=O)cc2N1 (racemic) [Example 7, (6RS)-8-fluoro-6-{2-[(RS)-2-oxo-3-(3-oxo-3,4-dihydro-2H-benzo[1,4]thiazin-6-yl)-oxazolidin-5-yl]-ethylamino}-6,7-dihydro-5H-pyrido[3,2,1-ij]quinolin-3-one] | ≤ 0.063
O=C1CSc2ccc(N3C[C@@H](CNC[C@H]4Cc5c(F)ccc6ccc(=O)n4c56)OC3=O)cc2N1 [Example 6, (R)-9-fluoro-2-({[(R)-2-oxo-3-(3-oxo-3,4-dihydro-2H-benzo[1,4]thiazin-6-yl)-oxazolidin-5-ylmethyl]-amino}-methyl)-1,2-dihydro-pyrrolo[3,2,1-ij]quinolin-4-one] | ≤ 0.063
O=C1COc2ccc(N3C[C@@H](CNC[C@H]4Cc5c(F)ccc6ccc(=O)n4c56)OC3=O)cc2N1 [Example 8, (R)-9-fluoro-2-({[(R)-2-oxo-3-(3-oxo-3,4-dihydro-2H-benzo[1,4]oxazin-6-yl)-oxazolidin-5-ylmethyl]-amino}-methyl)-1,2-dihydro-pyrrolo[3,2,1-ij]quinolin-4-one] | 0.125 (≈ 0.269 µM)
O=C1COc2ccc(N3C[C@@H](CNC[C@@H]4Cc5c(F)ccc6ccc(=O)n4c56)OC3=O)cc2N1 [Example 16, (S)-9-fluoro-2-({[(R)-2-oxo-3-(3-oxo-3,4-dihydro-2H-benzo[1,4]oxazin-6-yl)-oxazolidin-5-ylmethyl]-amino}-methyl)-1,2-dihydro-pyrrolo[3,2,1-ij]quinolin-4-one] | 0.125 (≈ 0.269 µM)
O=C1CSc2ccc(N3C[C@@H](CCNC[C@H]4Cc5c(F)ccc6ccc(=O)n4c56)OC3=O)cc2N1 [Example 18, (R)-9-fluoro-2-({2-[(R)-2-oxo-3-(3-oxo-3,4-dihydro-2H-benzo[1,4]thiazin-6-yl)-oxazolidin-5-yl]-ethylamino}-methyl)-1,2-dihydropyrrolo[3,2,1-ij]quinolin-4-one] | ≤ 0.063
O=C1CSc2ccc(N3C[C@H](CCNC[C@@H]4Cc5c(F)ccc6ccc(=O)n4c56)OC3=O)cc2N1 [Example 19, (S)-9-fluoro-2-({2-[(S)-2-oxo-3-(3-oxo-3,4-dihydro-2H-benzo[1,4]thiazin-6-yl)-oxazolidin-5-yl]-ethylamino}-methyl)-1,2-dihydropyrrolo[3,2,1-ij]quinolin-4-one] | ≤ 0.063

Same assay, conditions: microdilution method

MIC M. catarrhalis A894 | SMILES
≦0.063 mg/l | O=C1CSc2ccc(N3C[C@@H](CCNC[C@@H]4Cc5c(F)ccc6ccc(=O)n4c56)OC3=O)cc2N1 [Example 17, (S)-9-fluoro-2-({2-[(R)-2-oxo-3-(3-oxo-3,4-dihydro-2H-benzo[1,4]thiazin-6-yl)-oxazolidin-5-yl]-ethylamino}-methyl)-1,2-dihydro-1.5 pyrrolo[3,2,1-ij]quinolin-4-one]
